According to patent US20250129088A1, “CEREBLON E3 UBIQUITIN LIGASE INHIBITOR” (Gan & Lee Pharmaceuticals Co., Ltd., priority 2022, published 2025):
pIC50: −log10 of the molar value.

Columns and labels:
[1] = test system: JeKo-1 cells; experiment: JeKo-1 cell proliferation inhibition, CCK-8; type: cell-based; conditions: Homo sapiens, 96 h, JeKo-1, 4 days
Experimental: The complete medium required for JeKo-1 cells is RPMI1640 (ATCC, Product number: 30-2001) basal medium containing 20% fetal bovine serum. The JeKo-1 cells were seeded in a 96-well plate at a density of 10,000 cells/well, and different concentrations of the compounds of the present invention were prepared to treat the cells at the same time. The cells were incubated at a 37° C., 5% CO2 cell culture incubator for 4 days. Cell viability was detected using the CCK-8 kit (Beyotime, Product number: C0040) according to the manufacturer's instructions. According to the inhibition rate, the GraphPad Prism software was used to calculate the IC50 value of each compound for 4 days, and the results are shown in Table 13.

[2] = test system: Z138 cells; experiment: Z138 cell proliferation inhibition, CCK-8; type: cell-based; conditions: Homo sapiens, Z-138, 96 h, Z138, 4 days
Experimental: The complete medium required for Z138 cells is IMDM (ATCC, Product number: 30-2005) basal medium containing 10% horse serum. Z138 cells were seeded in a 96-well plate at a density of 10,000 cells/well, and different concentrations of the compound of the present invention and a positive control sample Ibrutinib (source: Bide Pharmaceuticals) were prepared to treat the cells. The cells were incubated in a 37° C., 5% CO2 cell incubator for 4 days. Cell viability was detected using the CCK-8 kit (Beyotime, Product number: C0040) according to the manufacturer's instructions. According to the inhibition rate, the GraphPad Prism software was used to calculate the IC50 value of each compound for 4 days, and the results are shown in Table 14.

[3] = target: E3 ubiquitin ligase CRBN (Homo sapiens (Human), UniProt Q96SW2); experiment: CRBN binding activity, HTRF competition with Thalidomide-Red (CEREBLON BINDING KIT); conditions: competition with XL665-labelled thalidomide, 3 hours room temperature
Experimental: From this, the binding force of the compounds to the CRBN protein was determined.
CRBN binding activity test kit (CEREBLON BINDING KITS (PE, 64BDCRBNPEG).
The detection is based on homogeneous time-resolved fluorescence (HTRF) technology.
The donor used in this kit was Europium-labeled GST antibody (GST Eu Cryptate Antibody), and the acceptor was thalidomide labeled with XL665 (Thalidomide-Red reagent). The donor binded to the CRBN protein containing the GST tag.
The donor and acceptor were diluted 50 times using the binding buffer from the kit (PROTAC binding buffer 1). The CRBN protein was diluted 45 times. The disclosed compound solution at 8 mM was diluted 10 times with the diluent from the kit (1× diluent), followed by a five-fold gradient dilution, performed 7 times sequentially.
Incubate at room temperature for 3 hours.
The ratio of the emission signals from the acceptor and donor in each individual well is calculated.
The coefficient of variation (CV)=standard deviation (SD)/mean Ratio*100
Using GraphPad Prism, IC50 values were calculated based on compound concentration, Ratio and coefficient of variation.

[4] = test system: NCI-H358 cells; experiment: NCI-H358 cell proliferation inhibition, CCK-8; type: cell-based; conditions: Homo sapiens, 96 h, NCI-H358, 4 days
Experimental: The complete medium required for NCI-H358 cells is RPMI1640 (ATCC, Product number: 30-2001) basal medium containing 10% fetal bovine serum. NCI-H358 cells were seeded in a 96-well plate at a density of 2,800 cells/well, and the next day, different concentrations of the compounds of the present invention were prepared to treat the cells, and the cells were treated for 4 days in a 37° C., 5% CO2 cell culture incubator. Cell viability was detected using a CCK-8 kit (Beyotime, Product number: C0040) according to the manufacturer's instructions. According to the inhibition rate, the GraphPad Prism software was used to calculate the IC50 value of each compound for 4 days, and the results are shown in Table 5.

[5] = test system: MV-4-11 cells; experiment: MV-4-11 cell proliferation inhibition, CCK-8; type: cell-based; conditions: Homo sapiens, MV4-11, 96 h, MV-4-11, 4 days, Table 8, positive control Ibrutinib
Method in brief: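 MV-4-11 cells (7,500/well) in IMDM with 10% FBS were exposed to graded compound concentrations for 4 days at 37 °C, 5% CO2. Viability was measured with CCK-8, and IC50 values were derived from inhibition rates.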

| Structure (SMILES) | pIC50 [3] | pIC50 [4] | pIC50 [2] | other results |
| --- | --- | --- | --- | --- |
| Nc1ncnc2c1c(-c1ccc(Oc3ccccc3)cc1)nn2[C@@H]1CCCN(CCOCCC(=O)N2CCC3(CCc4cc5c(cc4O3)C(=O)N(C3CCC(=O)NC3=O)C5)CC2)C1 (stereo partly drawn) [PROTAC 36, 3-(1-(3-(2-((R)-3-(4-amino-3-(4-phenoxyphenyl)-1H-pyrazolo[3,4-d]pyrimidine-1-yl)piperidin-1-yl)ethoxy)propionyl)-8′-oxo-3′,4′,6′,8′-tetrahydro-7′H-spiro[piperidine-4, 2′-pyrano[2,3-f]isoindol]-7′-yl)piperidine-2,6-dione] | – | – | 4.59 | pIC50 [1]: 4.72 |
| O=C1CCC(N2Cc3cc4c(cc3C2=O)CCC2(CCNCC2)O4)C(=O)N1 (centres unmarked) [Compound12, 3-(6′-oxo-3′,4′,6′,8′-tetrahydro-7′H-spiro[piperidine-4,2′-pyrano[2,3-f]isoindole]-7′-yl)piperidine-2,6-dione] | 5.52 | – | – | – |
| O=C1CCC(N2Cc3cc4c(cc3C2=O)CCC2(CNC2)O4)C(=O)N1 (centres unmarked) [Compound13, 3-(6′-oxo-3′,4′,6′,8′-tetrahydro-7′H-spiro[azetidine-3,2′-pyrano[2,3-f]isoindole]-7′-yl)piperidine-2,6-dione] | 5.41 | – | – | – |
| Nc1ncnc2c1c(-c1ccc(Oc3ccccc3)cc1)nn2[C@@H]1CCCN(CCOCCC(=O)N2CC3(CCc4cc5c(cc4O3)C(=O)N(C3CCC(=O)NC3=O)C5=O)C2)C1 (stereo partly drawn) [PROTAC 33, 1-(3-(2-((R)-3-(4-amino-3-(4-phenoxyphenyl)-1H-pyrazolo[3,4-d]pyrimidin-1-yl)piperidin-1-yl)ethoxy)propionyl)-7′-(2,6-dioxopiperidin-3-yl)-3′,4′-dihydro-6′H-spiro[azetidine-3,2′-pyrano[2,3-f]isoindole]-6′,8′(7′H)-dione] | – | – | 4.46 | pIC50 [1]: 4.20 |
| O=C1CCC(N2Cc3cc4c(cc3C2=O)OCC2(CCNCC2)O4)C(=O)N1 (centres unmarked) [Compound16, 3-(6′-oxo-6′,8′-dihydro-3′H,7′H-spiro[piperidine-4,2′-[1,4]dioxino[2,3-f]isoindole]-7′-yl)piperidine-2,6-dione] | 5.92 | – | – | – |
| Nc1ncnc2c1c(-c1ccc(Oc3ccccc3)cc1)nn2[C@@H]1CCCN(CCOCCC(=O)N2CCC3(CC2)COc2cc4c(cc2C3)C(=O)N(C2CCC(=O)NC2=O)C4=O)C1 (stereo partly drawn) [PROTAC 34, 1-(3-(2-((R)-3-(4-amino-3-(4-phenoxyphenyl)-1H-pyrazolo[3,4-d]pyrimidin-1-yl)piperidin-1-yl)ethoxy)propionyl)-7′-(2,6-dioxopiperidin-3-yl)-2′H-spiro[piperidine-4,3′-pyrano[2,3-f]isoindole]-6′,8′(4′H,7′H)-dione] | – | – | 4.86 | – |
| Nc1ncnc2c1c(-c1ccc(Oc3ccccc3)cc1)nn2[C@@H]1CCCN(CCOCCC(=O)N2CCC3(CCc4cc5c(cc4O3)C(=O)N(C3CCC(=O)NC3=O)C5=O)CC2)C1 (stereo partly drawn) [PROTAC 32, 1-(3-(2-((R)-3-(4-amino-3-(4-phenoxyphenyl)-1H-pyrazolo[3,4-d]pyrimidin-1-yl)piperidin-1-yl)ethoxy)propionyl)-7′-(2,6-dioxopiperidin-3-yl)-3′,4′-dihydro-6′H-spiro[piperidin-4,2′-pyrano[2,3-f]isoindole]-6′,8′(7′H)-dione] | – | – | 4.80 | pIC50 [1]: 4.74 |
| C=CC(=O)N1CCC[C@@H](n2nc(-c3ccc(Oc4ccccc4)cc3)c3c(N)ncnc32)C1 [Ibrutinib, reference compound] | – | – | 4.68 | pIC50 [5]: 7.11 |
| O=C1CCC(N2C(=O)c3cc4c(cc3C2=O)C2(CCNCC2)CO4)C(=O)N1 (centres unmarked) [Compound17, 6-(2,6-dioxopiperidin-3-yl)-6-hydro-2H, 5H-spiro[[2,3-f]isoindole-3,4′-piperidin]-5,7-dione] | 4.82 | – | – | – |
| O=C1CCC(N2C(=O)c3ccc4c(c3C2=O)C2(CCNCC2)CO4)C(=O)N1 (centres unmarked) [Compound27, 2-(2,6-dioxopiperidin-3-yl)-2-hydro-1H,7H-spiro[furo[3,2-e]isoindole-8,4′-piperidine]-1,3-dione] | 4.44 | – | – | – |

The next lines start with results.

| pIC50 [3] | pIC50 [4] | Structure (SMILES) | pIC50 [2] | other results |
| --- | --- | --- | --- | --- |
| – | 4.64 | COc1cc2ncnc(Nc3ccc(F)c(Cl)c3)c2cc1OCCCN1CCN(CCOCCC(=O)N2CCC3(CCc4cc5c(cc4O3)C(=O)N(C3CCC(=O)NC3=O)C5=O)CC2)CC1 (centres unmarked) [PROTAC 21, 1-(3-(2-(4-(3-((4-((3-chloro-4-fluorophenyl)amino)-7-methoxyquinazolin-6-yl)oxy)propyl)piperazin-1-yl)ethoxy)propionyl)-7′-(2,6-dioxopiperidin-3-yl)-3′,4′-dihydro-6′H-spiro[piperidine-4,2′-pyrano[2,3-f]isoindole]-6′,8′(7′H)-dione] | – | – |
| – | 4.37 | COc1cc2ncnc(Nc3ccc(F)c(Cl)c3)c2cc1OCCCN1CCN(CCOCCC(=O)N2CCC3(CC2)COc2cc4c(cc2O3)CN(C2CCC(=O)NC2=O)C4=O)CC1 (centres unmarked) [PROTAC 18, 3-(1-(3-(2-(4-(3-((4-((3-chloro-4-fluorophenyl)amino)-7-methoxyquinazolin-6-yl)oxy)propyl)piperazin-1-yl)ethoxy)propionyl)-6′-oxo-6′,8′-dihydro-3′H,7′H-spiro[piperidine-4, 2′-[1,4]dioxino[2,3-f]isoindol]-7′-yl)piperidine-2,6-dione] | – | – |
| – | 4.15 | COc1cc2ncnc(Nc3ccc(F)c(Cl)c3)c2cc1OCCCN1CCN(CCOCCC(=O)N2CC3(CCc4cc5c(cc4O3)C(=O)N(C3CCC(=O)NC3=O)C5=O)C2)CC1 (centres unmarked) [PROTAC 23, 1-(3-(2-(4-(3-((4-((3-chloro-4-fluorophenyl)amino)-7-methoxyquinazolin-6-yl)oxy)propyl)piperazin-1-yl)ethoxy)propionyl)-7′-(2,6-dioxopiperidin-3-yl)-3′,4′-dihydro-6′H-spiro[azetidine-3,2′-pyrano[2,3-f]isomdole]-6′,8′(7′H)-dione] | – | – |
| – | 4.77 | COc1cc2ncnc(Nc3ccc(F)c(Cl)c3)c2cc1OCCCN1CCN(CCOCCC(=O)N2CCC3(CCc4cc5c(cc4O3)C(=O)N(C3CCC(=O)NC3=O)C5)CC2)CC1 (centres unmarked) [PROTAC 17, 3-(1-(3-(2-(4-(3-((4-((3-chloro-4-fluorophenyl)amino)-7-methoxyquinazolin-6-yl)oxy)propyl)piperazin-1-yl)ethoxy)propionyl)-8′-oxo-3′,4′,6′,8′-tetrahydro-7′H-spiro[piperidine-4,2′-pyrano[2,3-f]isoindole]-7′-yl)piperidine-2,6-dione] | – | – |
| – | 4.51 | COc1cc2ncnc(Nc3ccc(F)c(Cl)c3)c2cc1OCCCN1CCN(CCOCCC(=O)N2CCC3(CC2)COc2cc4c(cc23)C(=O)N(C2CCC(=O)NC2=O)C4=O)CC1 (centres unmarked) [PROTAC 24, 1′-(3-(2-(4-(3-((4-((3-chloro-4-fluorophenyl)amino)-7-methoxyquinazolin-6-yl)oxy)propyl)piperazin-1-yl)ethoxy)propionyl)-6-(2,6-dioxopiperidin-3-yl)-6-hydro-2H,5H-spiro[furo[2,3-f]isoindole-3,4′-piperdine]-5,7-dione] | – | – |
| – | 4.28 | COc1cc2ncnc(Nc3ccc(F)c(Cl)c3)c2cc1OCCCN1CCN(CCOCCC(=O)N2CCC3(CC2)COc2cc4c(cc2C3)C(=O)N(C2CCC(=O)NC2=O)C4=O)CC1 (centres unmarked) [PROTAC 22, 1-(3-(2-(4-(3-((4-((3-chloro-4-fluorophenyl)amino)-7-methoxyquinazolin-6-yl)oxy)propyl)piperazin-1-yl)ethoxy)propionyl)-7′-(2,6-dioxopiperidin-3-yl)-2′H-spiro[piperidine-4,3′-pyrano[2,3-f]isoindole]-6′,8′(4′H,7′H)-dione] | – | – |
